In US20110038889A1, “METHODS AND COMPOSITIONS FOR ALTERING CELL FUNCTION” (ALLTECH, INC., priority 2005, published 2011):
Values belong to the compound of their own block, whether it stands above or below them.

Tests used:
Glyoxalase 1 (Glo1) = assay: Microarray gene expression, mouse intestine: Glo1; type: in vivo; conditions: Example 4 (intestine); diet 1 ppm Se, 100 days; vs selenium-deficient diet; p<0.01 for SEL-PLEX
Excerpt: (§1) Animal Care. Male C57BL/6J mice were housed singly and started on the experimental diets described below immediately after weaning (21 days of age). The mice were maintained in the Shared Aging Rodent Facility at the William S. Middleton Memorial Veterans Administration Medical Center (Madison, Wis.). Temperature and humidity were maintained at constant levels. Room light was controlled to provide 12-hr cycles of light and dark.
(§2) Experimental diets were created by Harlan Teklad (Madison, Wis.). Selenium content of the diets was determined by Covance Inc. (Madison, Wis.). Five (5) animals were included in each of the following treatment groups: a diet deficient in selenium (SD); a diet supplemented with selenomethionine (SM, obtained from Sigma,St. Louis, Mo.) such that the final selenium content of the diet was one (1) part per million; a diet supplemented with sodium selenite (SS, Sigma) such that the final concentration of selenium in this diet was one (1) part per million; or a diet supplemented with the yeast selenium SEL-PLEX (SP, Alltech, Lexington, Ky.), such that the final concentration of selenium in this diet was one (1) part per million. SEL-PLEX. […]
(§3) Tissue sample preparation and microarray analysis. […] For intestinal expression studies, the intestine was flushed twice with saline solution and small intestine was measured and divided in three equal segments. […]

Neurogenin 3 (Neurog3) = assay: Microarray gene expression, mouse intestine: Neurog3; type: in vivo; conditions: Example 6 (intestine); diet 1 ppm Se, 100 days; vs selenium-deficient diet
Excerpt: as §1, §2, §3

[1] = Body weight of mice on selenium diets; type: in vivo, mouse
Excerpt: as §1
Experimental diets were created by Harlan Teklad (Madison, Wis.). Selenium content of the diets was determined by Covance Inc. (Madison, Wis.). […]
Thus, it was an object of the present invention to determine whether compositions and methods of the present invention could alter the expression levels (e.g., mRNA levels) of various genes. One group of genes analyzed were genes classically associated with selenium. As described above, the expression levels of genes were analyzed between mice with and without dietary selenium, or, between mice fed different sources of selenium) (See, e.g., Table 1, below).

[2] = system: Growth arrest and DNA-damage-inducible 45 gamma (Gadd45g); assay: Microarray gene expression, mouse intestine: Gadd45g; type: in vivo; conditions: diet 1 ppm Se, 100 days, vs selenium-deficient diet, negative = down-regulated
Excerpt: as §1, §2, §3

[3] = system: LIM homeobox protein 8 gene (Lhx8); assay: Microarray gene expression, mouse intestine: Lhx8; type: in vivo; conditions: Example 5 (intestine); diet 1 ppm Se, 100 days; vs Se-deficient subjects; p<0.01 for SEL-PLEX
Excerpt: as §1, §2, §3

[4] = system: sprouty homolog 2 gene (Spry2); assay: Microarray gene expression, mouse intestine: Spry2; type: in vivo; conditions: Example 7 (intestine); diet 1 ppm Se, 100 days; relative to Se-deficient controls
Excerpt: as §1, §2, §3

CORS-26 = assay: Microarray gene expression, mouse cerebral cortex: CORS-26; type: in vivo; conditions: Example 10 (cerebral cortex); diet 1 ppm Se, 100 days; vs selenium-deficient diet
Excerpt: as §1, §2, §3

SelR (Selenoprotein X1) = assay: Microarray gene expression, mouse intestine: SelR; type: in vivo; conditions: diet 1 ppm Se, 100 days, vs selenium-deficient diet, p<0.01 Sod-sel, p<0.05 SEL-PLEX
Excerpt: as §1, §2, §3

[5] = system: Complement component 1, q subcomponent, gamma polypeptide, C1qg; assay: Microarray gene expression, mouse cerebral cortex: C1qg; type: in vivo; conditions: diet 1 ppm Se, 100 days, vs selenium-deficient diet, negative = down-regulated, * p<0.01
Excerpt: as §1, §2, §3

[6] = system: Type 1 iodothyronine deiodinase; assay: Microarray gene expression, mouse intestine: Type 1 iodothyronine deiodinase; type: in vivo; conditions: diet 1 ppm Se, 100 days, vs selenium-deficient diet
Excerpt: as §1, §2, §3

Selenoprotein W (SelW) = assay: Microarray gene expression, mouse intestine: SelW; type: in vivo; conditions: diet 1 ppm Se, 100 days, vs selenium-deficient diet
Excerpt: as §1, §2, §3

selenoprotein N1 (Sepn1) = assay: Microarray gene expression, mouse intestine: Sepn1; type: in vivo; conditions: diet 1 ppm Se, 100 days, vs selenium-deficient diet, p<0.02 for SEL-PLEX
Excerpt: as §1, §2, §3

[7] = system: transforming growth factor beta 2 (TGF-β2); assay: Microarray gene expression, mouse intestine: TGF-β2; type: in vivo; conditions: Example 5 (intestine); diet 1 ppm Se, 100 days; compared to controls
Excerpt: as §1, §2, §3

[8] = system: type II iodothyronine deiodinase (Dio2); assay: Microarray gene expression, mouse intestine: Dio2; type: in vivo; conditions: Example 4 (intestine); diet 1 ppm Se, 100 days; vs selenium-deficient diet
Excerpt: as §1, §2, §3

[9] = Chick brain Se concentration at day 14 (offspring of treated hens); type: in vivo, chicks (offspring of white-egg-laying hens); conditions: chicks of hens fed 0.3 ppm Se; chicks grown 14 days on Se deficient diet; pooled brains; basal 786 ppb
Method: (§4) Compositions and methods of the present invention were utilized to evaluate the effects of various Se sources on the accumulation of brain Se concentrations in hens and their offspring.
(§5) The study was conducted at the Coldstream Research Facility from Jun. 28, 2004 until Nov. 16, 2004. Six dietary treatments were fed to a total of 48 hens (r=8) that were bred on three consecutive days starting on Sep. 16, 2004.
(§6) The dietary treatments were as follows: Basal (no added Se) Selenite (0.3 ppm) SEL-PLEX (0.3 ppm) Tepsel (0.3 ppm) Se 2000 (0.3 ppm) Selenosource (0.3 ppm)
(§7) Chicks that hatched were divided into two groups. Half of the chicks were killed for brain collection and the remaining chicks were allowed to grow for 14 days on a Se deficient diet, at which time they were terminated for brain collection. Hen brains were analyzed for Se content individually, whereas the chick brains were homogenized and pooled because of small sample size.

[10] = Hen brain Se concentration after dietary selenium sources; type: in vivo, White-Egg-Laying Hens; conditions: 0.3 ppm Se in hen diet; basal diet 870 ppb; Selenosource one sample only
Method: as §4, §5, §6, §7

Gst zeta 1 (Gstz1) = assay: Microarray gene expression, mouse brain: Gstz1; type: in vivo; conditions: diet 1 ppm Se, 100 days, relative to Se-deficient animals, negative = down-regulated, * significant
Excerpt: as §1, §2, §3

[11] = system: Glutathione S-transferase, mu3 (Gstm3); assay: Microarray gene expression, mouse intestine: Gstm3; type: in vivo; conditions: diet 1 ppm Se, 100 days, vs Se-deficient diets, negative = down-regulated, NS = not significant
Excerpt: as §1, §2, §3

Cathepsin Z = assay: Microarray gene expression, mouse cerebral cortex: Cathepsin Z; type: in vivo; conditions: diet 1 ppm Se, 100 days, relative to Se-deficient mice, negative = down-regulated, * significant
Excerpt: as §1, §2, §3

[12] = system: Glutathione S-transferase, alpha 3 (Gsta3); assay: Microarray gene expression, mouse intestine: Gsta3; type: in vivo; conditions: diet 1 ppm Se, 100 days, vs Se-deficient diets, negative = down-regulated, NS = not significant
Excerpt: as §1, §2, §3

calpain-5 = assay: Expression level of calpain genes after selenium administration; type: in vivo; conditions: tissue not stated; + up, − down; * not explained at this place
Method: Compositions and methods of the present invention were analyzed to determine if they were capable of altering the expression levels of calpain genes. Compositions comprising various forms of selenium (e.g., SeM, Sod-sel, and SEL-PLEX) were administered to subjects and the expression levels of calpain genes monitored. The expression level of calpain-5 was altered by treatment in the following ways: free selenomethionine (SM) +1.32*, Sod-sel −1.07, SEL-PLEX −1.44*.

[13] = system: Thioredoxin Reductase 1 gene; assay: Microarray gene expression, mouse intestine: Thioredoxin Reductase 1; type: in vivo; conditions: diet 1 ppm Se, 100 days, vs selenium-deficient diet, all p <0.01
Excerpt: as §1, §2, §3

[14] = system: Glutathione S-transferase, theta 2 (Gstt2); assay: Microarray gene expression, mouse intestine: Gstt2; type: in vivo; conditions: diet 1 ppm Se, 100 days, vs Se-deficient diets, negative = down-regulated, NS = not significant
Excerpt: as §1, §2, §3

[15] = system: Glutathione S-transferase, mu1 (Gstm1); assay: Microarray gene expression, mouse intestine: Gstm1; type: in vivo; conditions: diet 1 ppm Se, 100 days, vs Se-deficient diets, negative = down-regulated, NS = not significant
Excerpt: as §1, §2, §3

[16] = system: Glutathione S-transferase, mu2 (Gstm2); assay: Microarray gene expression, mouse intestine: Gstm2; type: in vivo; conditions: diet 1 ppm Se, 100 days, vs Se-deficient diets, negative = down-regulated, NS = not significant
Excerpt: as §1, §2, §3

Fold reduction of Glo1 expression (Glyoxalase 1 (Glo1)): not significantly affected
Fold down-regulation of Dio2 expression [8]: no ability to alter
Compound: C[Se]CC[C@H](N)C(=O)O [SeM, selenomethionine]
Fold upregulation of Neurog3 expression (Neurogenin 3 (Neurog3)): no significant alteration
Body weights of mice ([1]; mouse, in vivo): No significant differences
FC (fold change) of Gadd45g expression [2]: −1.5 (p < 0.05) fold
Fold upregulation of Lhx8 expression [3]: not significantly different
Fold reduction in Spry2 gene expression [4]: no alteration
Fold reduction in expression of CORS-26 (CORS-26): no alteration
Fold upregulation of SelR gene expression (SelR (Selenoprotein X1)): not significantly affected
FC (fold change) of C1qg expression [5]: 1.0 fold
Fold increase in expression level of Type 1 iodothyronine deiodinase [6]: 2.0 fold
Fold upregulation of Selenoprotein W (SelW) expression (Selenoprotein W (SelW)): not significantly altered
Fold increase of selenoprotein N1 (Sepn1) gene expression (selenoprotein N1 (Sepn1)): not significantly affected
Fold upregulation of TGF-β2 expression [7]: not altered

Compound: O=[Se](O)O [Selenite]
Chick Brain Se Concentration at day 14 [9]: 784 ppb
Hen Brain Se Concentration [10]: 850 ppb

Compound: O=[Se](O)O [Sod-sel, sodium selenite]
FC (fold change) of Gstz1 expression in brain (Gst zeta 1 (Gstz1)): −1.3 fold
Body weights of mice ([1]; compared among selenium-deficient, Se-meth, Sod-sel and SEL-PLEX diets (FIG. 1)): No significant differences
FC (fold change) of Gadd45g expression [2]: −2.0 (p < 0.01) fold
FC (fold change) of Gstm3 expression [11]: −2.7 fold
FC (fold change) of Cathepsin Z expression (Cathepsin Z): −1.30* fold
Fold upregulation of SelR gene expression (SelR (Selenoprotein X1)): 1.3 fold
FC (fold change) of Gsta3 expression [12]: −2.3 fold
Alteration of expression level of calpain-5 (calpain-5): −1.07
Fold increase in expression level of Type 1 iodothyronine deiodinase [6]: 2.8 fold
Fold upregulation of Selenoprotein W (SelW) expression (Selenoprotein W (SelW)): 5.1 fold
Fold increase in expression of the Thioredoxin Reductase 1 gene [13]: 1.7 fold
FC (fold change) of Gstt2 expression [14]: −1.3 fold
FC (fold change) of Gstm1 expression [15]: −2.4 fold
FC (fold change) of Gstm2 expression [16]: −2.1 fold
